Results from publication PMC9858213, “What Is Authentic Maple Water? A Twelve-Month Shelf-Life Study of the Chemical Composition of Maple Water and Its Biological Activities” (Foods, 2023).

Target: T1, tyrosinase
T1 construct: gene PPO1
Test: absorbance at […] nm, tyrosinase inhibition in 96-well plate
Format: biochemical
Conditions: L-tyrosine substrate ([…] µL of […] in […] µL), phosphate buffer pH […], room temperature, […] min

IC50: 1.03 µM
Structure (SMILES): COc1cc(C(CO)C(c2ccc(O)c(OC)c2)c2ccc(O)c(OC)c2)ccc1O (stereo not shown) [quebecol]
